Measurements: patent EP0939136A1, “Assay for predicting the angiographic response to lipid-lowering therapy in patients” (Academisch Ziekenhuis bij de Universiteit van Amsterdam, priority 1998, dated 1999)

How the values were obtained:
Format in all cases: in vivo, male patients
[1] = REGRESS trial: in-trial changes in plasma lipids and lipoproteins; conditions: 40 mg/day, two years
Description: (§1) 807 Male patients participating in the Regression Growth Evaluation Statin Study (REGRESS), which has previously been described in detail (Kuivenhoven et al., Arterioscler. Thromb. Vasc. Biol. 17:560-568 (1997)) were prospectively studied. In short, study participants were required to have at least one coronary artery with a stenosis off >50 percent as assessed by coronary angiography, a plasma total cholesterol concentration of 155-310 mg per deciliter (4 to 8 millimole per liter) and triglycerides of 350 mg per deciliter(< 4 millimole per liter). Patients were subsequently randomized to treatment with pravastatin sodium (Pravachol®; 40 mg/day ) or to placebo for a period of two years. The placebo group contained 396 patients and the group treated with pravastatin contained 411 patients.
Plasma lipids and lipoproteins were measured using standard techniques (Groenemeyer et al., Circulation 95:2628-2653 (1997)). Due to a lack of sufficient aliquots of plasma, CETP concentrations were determined in 237 patients at baseline, and in only 68 pravastatin-treated subjects at the end of the trial. These measurements were performed by solid phase radioimmunoassay using recombinant human protein (provided by Dr. A.Tall; Columbia University, New York) as standard and a CETP monoclonal antibody, TP2 (produced by Dr. R. Milne; University of Ottawa Heart Institute; Ottawa, McPherson et al., Arterioscler. Thromb 11:797-804 (1991). In addition, the lipase and lipoprotein lipase activities were measured as reported (Groenemeyer et al., supra).
(§2) The differences between carriers of the three TaqIB genotypes (i.e. B1B1, B1B2, and B2B2) were tested using one-way ANOVA or Pearson's Chi-square test. Changes in lipids, lipoproteins and angiographic parameters during the trial period were quantified with means and standard deviations, and the differences within the two medication groups were tested using one-way covariance analysis with baseline levels as covariates.

[2] = REGRESS trial: computer-assisted quantitative coronary angiography (MSD, MOD); conditions: for MOD decrease: median (IQR) / MSD decrease: mean (SD): 40 mg/day, two years, larger figure = more progression of atherosclerosis
Description: as §1
Computer-assisted quantitative coronary angiography was carried out at the start and at the end of the study. The two following primary measures of outcome were used: (a) the change in the average Mean Segment Diameter (MSD) per patient (also known as Mean Lumen Diameter) reflecting diffuse changes of atherosclerosis, and (b) the change in the average Minimum Obstruction Diameter […]) which reflects the focal change of atherosclerosis. Given these definitions, one should note that a greater decrease in MSD and/or MOD reflects more progression of coronary atherosclerosis.
as §2
The interaction between the three CETP TaqIB genotypes and medication (placebo/pravastatin) was tested using the interaction test of two-way covariance analysis. It was checked whether the above interaction between genotype and medication was dependent of baseline HDL cholesterol concentration, changes in HDL during the trial, baseline MSD, baseline MOD, and each of hepatic lipase or lipoprotein lipase activity by using these as covariates in two-way covariance analysis. The latter analysis was also carried out to test if the significant differences in decrease in either MSD or MOD as identified amongst the TaqIB subgroups in the placebo group, were dependent on the above parameters.

[3] = REGRESS trial: events (death and myocardial infarction); conditions: 40 mg/day, two years
Description: as §1
Differences in rate of events between genotypes were analyzed with Pearson Chi-square tests within the medication groups, and the interaction between genotype and medication with logistic regression. Within each of the patient groups, the Hardy-Weinberg equilibrium was tested by means of gene counting and χ^2 analysis. Throughout, a P value of 0.05 was interpreted as representing a statistically significant difference. All statistical analyses were carried out with the Statistical Analysis System (SAS, version 6.1, SAS Institute, Cari, NC) and adapted from the EGRET Manual, (Statistical and Epidemiological Research Corporation, 1991, Seattle, Washington, USA).
Abbreviations: MSD = mean segment Diameter; MOD = minimum obstruction diameter (Note: A larger figure for either a decrease in mean segment diameter (MSD) or minimum obstruction diameter (MOD) indicates more progression of atherosclerosis). SD = standard deviation; IQR = interquartile range; * P value of covariance analysis of the change measures with baseline values as covariate, or chi-square test (where appropriate), comparing the three CETP-TaqIB genotypes; ^† P value of the interaction test of the interaction between treatment (placebo/pravastatin) and the CETP TaqIB genotype (B1B1-B1B2-B2B2) of covariance analysis with baseline values as covariate or of logistic regression, where appropriate. P values while comparing TaqIB subgroup of the placebo group with the pravastatin group: ^‡ P<0.001; ^§ P<0.38; ^¶ P<0.30; ^¥ P<0.002; ** P<0.01; ^†† P<0.48. ? Events are defined as death and myocardial infarction. For conversion from mg.dL^-1 to mmol.L^-1 for total cholesterol, LDL cholesterol and HDL cholesterol levels, multiply by factor 0.02586. For conversion of triglyceride levels from mg.dL^-1 to mmol.L^-1, use 0.01129. [formula] [formula] [formula]

CETP = experiment: Plasma CETP concentration by solid phase radioimmunoassay; conditions: 68 pravastatin-treated subjects, P<0.001
Description: as §1
Plasma lipids and lipoproteins were measured using standard techniques (Groenemeyer et al., Circulation 95:2628-2653 (1997)). Due to a lack of sufficient aliquots of plasma, CETP concentrations were determined in 237 patients at baseline, and in only 68 pravastatin-treated subjects at the end of the trial. […]

[4] = CETP TaqIB genotype B1B1 (n=136)
[5] = CETP TaqIB genotype B1B2 (n=212)
[6] = CETP TaqIB genotype B2B2 (n=63)

Question: What does the source list for `CC[C@H](C)C(=O)O[C@H]1C[C@H](O)C=C2C=C[C@H](C)[C@H](CC[C@@H](O)C[C@@H](O)CC(=O)O)[C@H]21` [Pravastatin, pravastatin sodium]?
Answer: HDL cholesterol incr.: mean (SD) [1, 4]: 4.3 (6.2) mg.dL^-1; LDL cholesterol red.: mean (SD) [1, 4]: 56.8 (26.7) mg.dL^-1; Total cholesterol red.: mean (SD) [1, 4]: 53.8 (32.1) mg.dL^-1; Triglyceride red.: ln(g.mean) (CV) [1, 4]: 7.1 (32.8) mg.dL^-1; HDL cholesterol incr.: mean (SD) [1, 5]: 3.9 (7.0) mg.dL^-1; LDL cholesterol red.: mean (SD) [1, 5]: 49.5 (29) mg.dL^-1; Total cholesterol red.: mean (SD) [1, 5]: 48.3 (32.5) mg.dL^-1; Triglyceride red.: ln(g.mean) (CV) [1, 5]: 7.1 (37.2) mg.dL^-1; HDL cholesterol incr.: mean (SD) [1, 6]: 3.5 (6.6) mg.dL^-1; LDL cholesterol red.: mean (SD) [1, 6]: 56.5 (33.6) mg.dL^-1; Total cholesterol red.: mean (SD) [1, 6]: 54.1 (35.2) mg.dL^-1; Triglyceride red.: ln(g.mean) (CV) [1, 6]: 5.3 (38.1) mg.dL^-1; progression of coronary atherosclerosis compared with counterparts in the placebo group ([2]; B2B2 homozygotes, end of the study): statistically non-significant larger progression; MOD decrease: median (IQR) [2, 4]: 0.01 (.19) mm; MSD decrease: mean (SD) [2, 4]: 0.05 (.16) mm; MOD decrease: median (IQR) [2, 5]: 0.04 (.21) mm; MSD decrease: mean (SD) [2, 5]: 0.07 (.20) mm; MOD decrease: median (IQR) [2, 6]: 0.04 (.22) mm; MSD decrease: mean (SD) [2, 6]: 0.09 (.16) mm; progression of coronary atherosclerosis compared with counterparts in the placebo group ([2]; carriers of one B1 allele (B1B2), MOD, P<0.01): significantly less focal atherosclerosis; progression of coronary atherosclerosis compared with counterparts in the placebo group ([2]; carriers of two B1 alleles (B1B1), smaller decreases of MSD and MOD (P<0.001, P<0.002)): significantly less progression of coronary atherosclerosis; Events (yes/no): (%) [3, 4]: 2.9%; Events (yes/no): n [3, 4]: 4; Events (yes/no): (%) [3, 5]: 1.9%; Events (yes/no): n [3, 5]: 4; Events (yes/no): (%) [3, 6]: 0.0%; Events (yes/no): n [3, 6]: 0; plasma CETP concentration (CETP; end of the trial (baseline 2.03±0.53)): 1.71±0.46 µg per milliliter; reduction in plasma CETP concentrations (CETP; end of the trial compared with baseline): 16%
